According to patent US4001218A, “Penicillins” (Bayer Aktiengesellschaft, priority 1972, dated 1977):

Experiments:
[1] = test system: Klebsiella 62; assay: animal experiment, Klebsiella 62 infection; details: 1st day after infection; s.c. 2 × 3000 Units per animal; experiment with Ex.1
[2] = test system: Psdm. aerug. F 41; assay: animal experiment, Psdm. aerug. F 41 infection; details: s.c. 4 × 3000 Units per animal
[3] = test system: Klebsiella 63; assay: animal experiment, Klebsiella 63 infection; details: s.c. 2 × 3000 Units per animal
[4] = test system: E. coli C 165; assay: MIC, test tube series dilution test, E. coli C 165; format: cell-based; details: 24 hours, 37°C
[5] = test system: E. coli 183/58; assay: MIC, test tube series dilution test, E. coli 183/58; format: cell-based; details: 24 hours, 37°C
[6] = test system: E. coli 14; format: cell-based; details: E. coli 14; 24 hours, 37°C
[7] = test system: Staph. aureus 133; format: cell-based, Staphylococcus aureus; details: Staph. aureus 133; 24 hours, 37°C
[8] = test system: Proteus morg. 932; assay: MIC, test tube series dilution test, Proteus morg. 932; format: cell-based; details: 24 hours, 37°C
[9] = test system: Enterococcus 9790; assay: MIC, test tube series dilution test, Enterococcus 9790; format: cell-based; details: 24 hours, 37°C
[10] = test system: Psdm. aerug. F 41; assay: MIC, test tube series dilution test, Psdm. aerug. F 41; format: cell-based, Pseudomonas aeruginosa; details: Psdm. aerug. F 41; 24 hours, 37°C
[11] = test system: Proteus vulg. 1017; format: cell-based, Proteus vulgaris; details: Proteus 1017; 24 hours, 37°C
[12] = test system: Psdm. aerug. Walter; assay: MIC, test tube series dilution test, Psdm. aerug. Walter; format: cell-based, Pseudomonas aeruginosa; details: Psdm. aerug. Walter; 24 hours, 37°C
[13] = test system: Klebsiella K 10; assay: MIC, test tube series dilution test, Klebsiella K 10; format: cell-based; details: 24 hours, 37°C
[14] = test system: Staph. aureus 1756; assay: MIC, test tube series dilution test, Staph. aureus 1756; format: cell-based, Staphylococcus aureus; details: Staph. aureus 1756; 24 hours, 37°C
[15] = test system: E. coli A 261; assay: MIC, test tube series dilution test, E. coli A 261; format: cell-based; details: 24 hours, 37°C
[16] = test system: Klebsiella 63; assay: MIC, test tube series dilution test, Klebsiella 63; format: cell-based; details: Klebsiella 63; 24 hours, 37°C
[17] = 1st day after infection, experiment with Ex.22
[18] = 1st day after infection, experiment with Ex.29
[19] = 2nd day after infection, experiment with Ex.22
[20] = 2nd day after infection, experiment with Ex.29
[21] = 3rd day after infection, experiment with Ex.29
[22] = 5th day after infection, experiment with Ex.29
[23] = 1st day after infection, experiment with Ex.41
[24] = 1st day after infection, experiment with Ex.7

Structure (SMILES) | MIC [4] [U/ml] | MIC [5] [U/ml] | MIC [6] | MIC [7] [U/ml] | MIC [8] | MIC [9] | MIC [10] | MIC [11] | MIC [12] [U/ml] | MIC [13] [U/ml] | MIC [14] [U/ml] | MIC [15] [U/ml] | MIC [16] [U/ml] | also measured
CC1(C)S[C@@H]2[C@H](NC(=O)C(C(=O)O)c3ccccc3)C(=O)N2[C@H]1C(=O)O (stereo partly shown) [Carbenicillin, reference compound] |  |  |  |  |  |  |  |  |  |  |  |  |  | Surviving animals [1]: 0%; Surviving animals [2, 17]: 50%; Surviving animals [2, 18]: 80%; Surviving animals [2, 19]: 0%; Surviving animals [2, 20]: 30%; Surviving animals [2, 21]: 30%; Surviving animals [2, 22]: 20%; Surviving animals [3, 23]: 0%; Surviving animals [3, 24]: 0%
CC1(C)S[C@@H]2[C@H](NC(=O)[C@H](NC(=O)c3ccc(NC(=O)C4CCCC4)cc3)c3ccccc3)C(=O)N2[C@H]1C(=O)O [Example 7, sodium D(-)-α-(4-cyclopentanecarbonylamino-benzoylamino)-benzylpenicillin] | 8 | 8 | < 1 U/ml | < 1 | 256 U/ml | 8 U/ml | 32 U/ml | 32 U/ml | 32 | 32 | 64 | > 256 | 32 | Surviving animals [3, 24]: 100%; Surviving animals ([3]; 2nd day after infection, experiment with Ex.7): 100%; Surviving animals ([3]; 3rd day after infection, experiment with Ex.7): 20%
COc1cc(C(=O)Nc2ccc(C(=O)N[C@@H](C(=O)N[C@@H]3C(=O)N4[C@@H]3SC(C)(C)[C@@H]4C(=O)O)c3ccccc3)cc2)cc(OC)c1OC [Example 22, Sodium D(-)-α-(4-[3,4,5-trimethoxybenzoylaminobenzoylamino])-benzylpenicillin] |  |  |  | < 1 |  |  |  | ~ 16 U/ml |  |  |  | > 256 |  | Surviving animals [2, 17]: 80%; Surviving animals [2, 19]: 80%; Surviving animals ([2]; 3rd day after infection, experiment with Ex.22): 80%
CC1(C)S[C@@H]2[C@H](NC(=O)[C@H](NC(=O)c3ccc(NC(=O)c4ccc(N)cc4)cc3)c3ccccc3)C(=O)N2[C@H]1C(=O)O [Example 29, sodium D(-)-α-[4-(4-aminobenzoylamino)-benzoylamino] -benzylpenicillin] | 4 | 16 | < 1 U/ml | < 1 | > 256 U/ml | 4 U/ml | ~ 32 U/ml | 256 U/ml | 32 | 128 | 32 | > 256 | 64 | Surviving animals [2, 18]: 100%; Surviving animals [2, 20]: 80%; Surviving animals [2, 21]: 70%; Surviving animals [2, 22]: 70%
CC1(C)S[C@@H]2[C@H](NC(=O)[C@H](NC(=O)c3ccc(NC(N)=O)cc3)c3ccccc3)C(=O)N2[C@H]1C(=O)O [Example 30, sodium D(-)-α-(4-carbamoylaminobenzoylamino)-benzylpenicillin] | 32 | 256 | ~ 32 U/ml | < 1 | > 256 U/ml | 8 U/ml | 128 U/ml | > 256 U/ml | > 256 | > 256 | 64 | > 256 | 256 | 
CC1(C)S[C@@H]2[C@H](NC(=O)[C@H](NC(=O)c3ccc(NC(=O)C=Cc4ccccc4)cc3)c3ccccc3)C(=O)N2[C@H]1C(=O)O [Example 35] | 4 | < 1 | < 1 U/ml | < 1 | 128 U/ml | ~ 4 U/ml | 4 U/ml | ~ 1 U/ml | 4 | 16 | 8 | > 256 | 8 | 
CC(N=[N+]=[N-])C(=O)Nc1ccc(C(=O)N[C@@H](C(=O)N[C@@H]2C(=O)N3[C@@H]2SC(C)(C)[C@@H]3C(=O)O)c2ccccc2)cc1 (stereo partly shown) [Example 37] | 8 | 16 | 4 U/ml | < 1 | ~ 128 U/ml | 16 U/ml | ~ 32 U/ml | 128 U/ml | 32 | 64 | 64 | > 256 | 32 | 
CC1(C)S[C@@H]2[C@H](NC(=O)[C@H](NC(=O)c3ccc(NC(=O)CCN=[N+]=[N-])cc3)c3ccccc3)C(=O)N2[C@H]1C(=O)O [Example 38] | 16 | 16 | 4 U/ml | < 1 | ~ 256 U/ml | ~ 16 U/ml | 32 U/ml | 32 U/ml | 32 | 128 | 32 | > 256 | 64 | 
CC1(C)S[C@@H]2[C@H](NC(=O)[C@H](NC(=O)c3ccc(NC=O)cc3)c3ccccc3)C(=O)N2[C@H]1C(=O)O [Example 41, Sodium D(-)-α -(4-formylamino-benzoylamino)-benzylpenicillin] | 32 | 64 | 8 U/ml | < 1 |  | 8 U/ml | 32 U/ml | 64 U/ml | 64 | 128 | 32 | > 256 | 128 | Surviving animals [3, 23]: 80%; Surviving animals ([3]; 2nd day after infection, experiment with Ex.41): 50%; Surviving animals ([3]; 3rd day after infection, experiment with Ex.41): 50%; Surviving animals ([3]; 5th day after infection, experiment with Ex.41): 50%
CC1(C)S[C@@H]2[C@H](NC(=O)[C@H](NC(=O)c3ccc(NC(=O)Nc4ccccc4)cc3)c3ccccc3)C(=O)N2[C@H]1C(=O)O [Example 45] | 8 | 4 | < 1 U/ml | < 1 | 128 U/ml | < 1 U/ml | 8 U/ml | 16 U/ml | 16 | 32 | 16 | > 256 | 16 | 
CC1(C)S[C@@H]2[C@H](NC(=O)[C@H](NC(=O)CNC(=O)c3ccc(NC(=O)C4CCCC4)cc3)c3ccccc3)C(=O)N2[C@H]1C(=O)O [Example 66] | 32 | 64 | 8 U/ml | < 1 | > 256 U/ml | 32 U/ml | 64 U/ml | 32 U/ml | 128 | 64 | 32 | > 256 | 32 | 
